Data from patent publication US11629192B2, “Methods and pharmaceutical compositions for the treatment of diseases mediated by the NRP-1/OBR complex signaling pathway” (INSERM (Institut National de la Sante et de la Recherche …, priority 2014, dated 2023).
Entries after “also recorded” stand apart in the source; their conditions may differ.

Tests used:
MDA-MB-231 cells = assay: MDA-MB-231 cell migration / transmigration through insert; format: cell-based, human; settings: 10 μg/ml of Bevacizumab
Excerpt: (§1) FIG. 5. NRP-1, OBR and leptin interactions confirmation using a Bio-Layer Interferometry (BLI) technology (fortebio.com/bli-technology.html): A-Leptin (OB) interaction to OBR is used as a positive control. Human neuropilin-1 (hNRP-1) interact with human OBR with a high affinity and specifically with human leptin (hOB) but not with murine leptin (mOB). VEGF165 binding to hNRP-1 is used as a positive control. B-Leptin and Avastin association increases MDA-MB231 cells transmigration through […] pore Insert. Avastin treatment may prevent a negative feedback control by VEGF of the pro-angiogenic signaling pathway of Leptin. VEGF binds to OBR which confirms our hypothesis that should be more investigated.
First MBA-MB-231 and T47D breast cancer cells line were selected for their high and undetectable NRP-1 expression respectively and the expression of Leptin receptor (OBR). In order to investigate NRP-1 and Leptin association in breast cancer cell line migration, we proceeded to NRP-1 expression silencing in MDA-MB-231 using either siRNA or shRNA approaches or NRP-1 overexpression in T47D. […] In contrast Leptin induced MDA-MB-231 migration that was decreased in siNRP-1 conditions. The in vitro data were confirmed in vivo by MDA-MB-231 and T47D xenografts in Nude mice. Modulation of NRP-1 expression either by shRNA silencing in MDA-MB-231 or by overexpression in T47D induced an increase of proliferation and a decrease of lymph node infiltration by MDA-MB-231-shNRP-1 and a decrease of proliferation and an increase of lymph node infiltration by T47D-NRP-1-RFP in mice treated with Leptin.
Leptin induced in vitro MDA-MB-231 migration that was decreased by NRP-1 repression using siRNA. Lel Xu et al have reported a direct evidence of NRP-1 up-regulation in tumors treated by anti-VEGF (Bevacizumab). […] This observation can be a first explanation of breast cancer therapy failure (increase of Progression survival while decreasing overall survival) by Bevacizumad and that was revoked by the FDA (Food and Drugs Administration, US).

P-NRP-1 = assay: NRP-1 (P-NRP-1) and OBR phosphorylation in MDA-MB-231, immunostaining / coimmunoprecipitation; format: cell-based, human; settings: for NRP-1 and OBR phosphorylation: inhibition of CK2 by chemical compounds
Excerpt: Beside the modulation of the NRP-1/OBR complex formation by Leptin and OBR phosphorylation, we postulated a possible phosphorylation of NRP-1 that can regulate the translocation of the complex to the nucleus. Two putative phosphorylation sites of NRP-1 have been reported with no more investigation. The first one at the extracellular B domain as reported by Shintani et al in 2009 with no antibody available and the second one at the Threonine 916 located in the cytoplasmic domain as it was reported by Kyle et al in 2011. Since a specific antibody against P-NRP-1 at the T916 was available, we investigated by coimmunoprecipitation the detection of P-NRP-1 in MDA-MB-231 after serum starvation and stimulation by Leptin (10 nM). […] To confirm this phosphorylation state, we investigated the possible implication of a Serine/threonine Kinase CK2 using one of its first chemical inhibitor (DRB). In serum starved condition, P-NRP-1 was detected as polarized spot in the cytoplasm and the nucleus of MDA-MB-231. […] The inhibition was specific since, in stimulated condition combined with DMSO at the same dilution of DRB, we were able to observe a diffuse nuclear P-NRP-1 staining.

NRP-1/OBR complex [1] = assay: NRP-1/OBR complex detection by Duolink Proximity Ligation Assay in MDA-MB-231 cells; format: cell-based, human; settings: for formation and nuclear translocation of the NRP-1/OBR complex: MDA-MB-231 stimulated with Leptin (10 nM), CK2 inhibitor treatment
Excerpt: FIG. 2A-E. NRP-1/OBR complex is dependent of the activity of Protein-kinase CK2: NRP-1 and OBR are both a substrate of the holoenzyme CK2: In vitro phosphorylation of the recombinant full length NRP-1 (A) and the length OBR (B) indicate that the CK2β subunit is indispensable for the CK2 activity. C. Detection of the NRP-1 and CK2β subunit interaction: By using the PLA technology, the in vitro data showing the implication of CK2β subunit in the phosphorylation of NRP-1 by CK2 are in part confirmed in MDA-MB231 cells by the detection of CK2β interaction with NRP-1 as indicated by the duolink (white dot). […] E. inhibition of the NRP-1/OBR by the simultaneous CK2α and CK2α′ expression silencing using siRNA that confirms the CK2 implication In the NRP-1/OBR complex formation and nuclear localization.
To confirm a direct association of NRP-1 and Leptin in breast cancer cell migration, we investigated the NRP-1 and OBR interaction by using proximity ligation assay technology (Duolink) in MDA-MB-231 and in T47D-NRP-1. Since OBR is a member of the class I cytokine receptor family, we asked the question if the formation of the complex NRP-1/OBR can or not be modulated by Leptin. This question was investigated endogenously in MDA-MB-231 or by transient transfection of T47D either by NRP-1 or by NRP-1/OBR or OBR alone. After 24 h of transfection, cells were serum starved for 16 h then stimulated with Leptin (10 nM). After 3 h, the stimulation was stopped by removing the medium, cells was first washed then fixed and NRP-1/OBR complex formation was analyzed by Duolink in situ Proximity Ligation Assay (PLA) and by confocal microscopy detection. Co-localization was analyzed using JACoP (ImageJ; National Institutes of Health, Bethesda, Md.) software. Co-localization between molecules was indicated by a positive Pearson coefficient (r). First, the expression of NRP-1 in transfected T47D was confirmed by RT-PCR. NRP-1 forms a complex with endogenous OBR as it is shown by the Duolink detection as red dot in cells transfected with pcDNA3-NRP-1. The Duolink signal increased in the T47D co-transfected with NRP-1 and OBR. The Duolink signals in T47D transfected with either the empty vector pcDNA3 or with the OBR expressing vector were similar. The same results are observed in MDA-MB-231. […] By using subcellular protein fractionation kit, NRP-1 and OBR localization in cytoplasmic (C), membrane (M), in the total nuclear extract (N) or in soluble nuclear (SN) and chromatin bound fractions (CB) was analyzed by western blotting either in total lysate or after coimmunoprecipitation. The purity of fraction was assessed by the detection of specific proteins of each fraction such as Hsp90 for the C fraction, SP1 and HDAC2 for the SN and CB fractions and specifically the Calreticulin for endoplasmic reticulum (ER) in order to detect any contamination by the ER membrane fraction in the nuclear fractions. As suspected, OBR was coimmunoprecipitated with NRP-1 in the cytoplasmic (C) and in the nuclear fraction (N) of MDA-MB-231 but not in T47D. As well as Phosphorylated OBR (P-OBR), NRP-1 was detected in cytoplasmic fraction and in nuclear fractions SN and CB of 16 h serum starved MDA-MB-231 and stimulated with 10 nM of Leptin during 3 h at 37° C. The P-OBR and NRP-1 coimmunoprecipitated in the nuclear fractions, increasing with Leptin stimulation as observed by confocal microscopy.
As attempted, NRP-1/OBR complex was detected by confocal microscopy after by Duolink in situ Proximity Ligation Assay (PLA) in MDA-MB-231 stimulated with Leptin (10 nM). This detection was also observed in MDA-MB-231-shGFP but very less in MDA-MB-231-shNRP-1 confirming NRP-1 association with OBR.

NRP-1/OBR complex [2] = assay: NRP-1/OBR complex by PLA in skin fibroblast of healthy donor and anorexic patient; format: cell-based, human; settings: for NRP-1/OBR complex formation: skin fibroblasts of healthy donor and anorexic patient, treated during 4 hours
Description: FIG. 3A-B. NRP1/OBR complex formation inhibited by two alosteric inhibitors of Protein-kinase CK2 in skin fibroblast of healthy donor (A) and anorexic patient (B). The NRP-1/OBR complex (Red dot) is detected by de Proximity Ligation assay technology (PLA or Ouolink). Cells were grown in DMEM plus 20% of fetal bovine serum+Sodium pyruvate+LGiutamate and penicillin and streptomycin. Cells were treated or not with D3.1 or M4 CK2 inhibitor during 4 hours. Cells were washed with PBS1X and fixed with iced acetone and rehydrated with PBS before blockage and staining with a Goat ant-Human leptin and Rabbit anti-Neuropilin-1 and Mouse anti-Leptin receptor OBR. Leptin was detected using a donkey and Goat Alexa 488 (Green) and NRP-1 and OBR with anti-Rabbit-PLA minus and antimouse-PLA plus as described in the link indicated above. The NRP-1/OBR complex is inhibited by D3.1 and M4 treatment.

[3] = tested on: OBR and STAT3 phosphorylation; assay: OBR and STAT3 phosphorylation in cytoplasmic and nuclear fractions; format: cell-based
Excerpt: Since both NRP-1/OBR complex formation and NRP-1 phosphorylation were abolished by CK2 inhibition, we supposed that OBR signaling pathway could be also affected by CK2 inhibition.

[4] = biological target: Human neuropilin-1 (hNRP-1) (Homo sapiens, UniProt O14786); assay: Bio-Layer Interferometry (BLI) interaction with hNRP-1; format: binding
Excerpt: as §1

Bevacizumab: anti-VEGF antibody (rhuMab VEGF, Avastin) [reference compound]
MDA-MB-231 migration (MDA-MB-231 cells): induced

O=C(O)c1ccc2c(c1)nc(Nc1cccc(Cl)c1)c1ccncc12 [CX4945]
NRP-1 and OBR phosphorylation (P-NRP-1): prevented | NRP-1/OBR complex detection by PLA and its nuclear localization (NRP-1/OBR complex [1]; MDA-MB231, CX4945 (504) during 4 h, leptin stimulation (10 nM)): decrease in NRP-1/OBR complex detection by PLA (red dot) and its nuclear localization | formation and nuclear translocation of the NRP-1/OBR complex (NRP-1/OBR complex [1]): prevented; also recorded: the same results obtained with TBB and DRB inhibitors

O=C(O)c1cccc(Nc2nc(-c3cccc([N+](=O)[O-])c3)cs2)c1 [D3.1]
NRP-1/OBR complex formation (NRP-1/OBR complex [2]): inhibited | efficiency of NRP-1/OBR complex inhibition, D3.1 compared with M4 (NRP-1/OBR complex [2]; skin fibroblasts, 4 hours): seems more efficient

O=[N+]([O-])c1ccc2c(/N=N/c3c(O)ccc4ccccc34)c(O)cc(S(=O)(=O)O)c2c1 [M4, reference compound]
NRP-1/OBR complex formation (NRP-1/OBR complex [2]): inhibited

CCC(=C/[C@H](C)C/C=C/C(C)=C/[C@@H](C)C(=O)[C@@H](C)[C@H](O)[C@@H](C)C/C(C)=C/C(=O)O)/C=C/[C@@H]1OC(=O)C=C[C@@H]1C [leptomycin B]
NRP-1/OBR complex detection by Duolink in the nucleus (NRP-1/OBR complex [1]; MDA-MB-231 co-treated with Leptin and leptomycin B vs Leptin alone): increased

OC[C@H]1O[C@@H](n2cnc3cc(Cl)c(Cl)cc32)[C@H](O)[C@@H]1O [DRB, 5,6-dichloro-1-P-D-ribofuranosylbenzimidazole]
P-NRP-1 staining (diffuse nuclear staining and polarized spot) (P-NRP-1; Leptin-stimulated (10 nM) MDA-MB-231, DRB treatment (5004)): inhibition of the diffuse nuclear P-NRP-1 staining but also to the decrease of P-NRP-1 polarized spot | NRP-1 and OBR phosphorylation (P-NRP-1): prevented | formation and nuclear translocation of the NRP-1/OBR complex (NRP-1/OBR complex [1]): prevented | formation and nuclear translocation of the NRP-1/OBR complex (NRP-1/OBR complex [1]; listed as DBB): decrease of NRP-1/OBR complex formation

Brc1c(Br)c(Br)c2[nH]nnc2c1Br [TBB, 4,5,6,7-tetrabromobenzotriazole]
NRP-1 and OBR phosphorylation (P-NRP-1): prevented | formation and nuclear translocation of the NRP-1/OBR complex (NRP-1/OBR complex [1]): prevented; also recorded: decrease of NRP-1/OBR complex formation | Leptin induced OBR and STAT3 phosphorylation increase, effect of inhibitor [3]: inhibited by TBB treatment in a dose dependent manner

B1: mOB: murine leptin (protein, UniProt P41160 22-167, looked up)
Leptin: VPIQKVQDDTKTLIKTIVTRINDISHTQSVSAKQRVTGLDFIPGLHPILSLSKMDQTLAVYQQVLTSLPSQNVLQIANDLENLRDLLHLLAFSKSCSLPQTSGLQKPESLDGVLEASLYSTEVVALSRLQGSLQDILQQLDVSPEC
interaction with hNRP-1 [4]: not
